Results: patent US20020081665A1, “Bryostatins, bryopyrans and polyketides: compositions and methods” (priority 1999, published 2002)

Columns and labels:
lymphocytes [1] = conditions: in vitro; cited from earlier work
lymphocytes [2] = conditions: cancer patients, intravenous administration; cited from earlier work
[3] = test system: human breast cancer cells; conditions: cited from earlier work
melanoma = conditions: cited from earlier work; for side effects: compared with bryostatin 1, melanoma treatment; for effectiveness in treating melanoma: compared with bryostatin 1
B. neritina = assay: gentamicin treatment of B. neritina larvae, bryostatin activity and growth of colonies; set-up: species or system Bugula neritina; conditions: about 100 micrograms per milliliter for about seven days post-settlement
Procedure: (§1) B. neritina larvae were treated with gentamicin at about 100 micrograms per milliliter for about seven days post-settlement, grown out for 3 months to re-establish their commensal bacterial flora, and then assayed for E. sertula levels and KSa levels by specific PCR and bryostatin activity by phorbol dibutyrate displacement (PdBu) assay (FIG. 7). The standard method for detecting bryostatins is the PdBu displacement assay (DeVries et al., 1988). Rat brain liposomes are incubated with tritiated PdBu, which binds to PKC in the liposomes. The liposomes are collected by filtration and counted in a scintillation counter. If an extract is added that contains a compound that can compete with phorbol for binding, less tritiated PdBu is bound. The assay has a subnanomolar detection limit for pure bryostatin 1 and is suitable for milligram quantities of sample. In B. neritina, the only compounds with PdBu activity are bryostatins, and PdBu activity is a good measure of total bryostatin activity.

E. sertula = assay: gentamicin treatment of B. neritina larvae, E. sertula and KSa levels by specific PCR; set-up: species or system Candidatus Endobugula sertula; conditions: about 100 micrograms per milliliter for about seven days post-settlement, grown out 3 months, vs untreated controls
Procedure: as §1

CCC/C=C/C=C/C(=O)O[C@H]1/C(=C/C(=O)OC)C[C@H]2C[C@H]([C@@H](C)O)OC(=O)C[C@H](O)C[C@@H]3C[C@H](OC(C)=O)C(C)(C)[C@](O)(C[C@@H]4C/C(=C/C(=O)OC)C[C@H](/C=C/C(C)(C)[C@]1(O)O2)O4)O3 [bryostatin 1]
effect on lymphocytes in combination with IL-2 (lymphocytes [1]): enhances proliferation and IL-2 receptor expression on lymphocytes
effect on IL-2-induced lymphocyte activity in patients (lymphocytes [2]): increased the potential of IL-2 to induce proliferation of LAK activity in lymphocytes
sensitization to the cytotoxic effects of gemcitabine [3]: sensitized human breast cancer cells to the cytotoxic effects of gemcitabine

COC(=O)/C=C1/C[C@H]2C[C@]3(O)O[C@H](C[C@@H](O)CC(=O)O[C@@H]([C@@H](C)O)C[C@H]4C/C(=C\C(=O)OC)[C@H](OC(C)=O)[C@@](O)(O4)C(C)(C)/C=C/[C@@H](C1)O2)C[C@H](OC(=O)CC(C)C)C3(C)C [bryostatin 5]
side effects (melanoma): milder side effects
effectiveness in treating melanoma (melanoma): as effective as bryostatin 1

bryostatin 8
side effects (melanoma): milder side effects
effectiveness in treating melanoma (melanoma): as effective as bryostatin 1

gentamicin
bryozoan growth rates, treated versus untreated colonies (B. neritina): the same
bryostatin activity of treated colonies (PdBu assay) (B. neritina; grown out 3 months, vs untreated controls): reduced
KSa levels (E. sertula; specific PCR): reduced dramatically
E. sertula population (E. sertula; FIG. 7): reduced dramatically
